Assay results reported in patent publication US11958865B1, “Leucine-rich repeat kinase 2 (LRRK2) inhibitors” (H. Lundbeck A/S, priority 2022, dated 2024).
Like-named read-outs stand apart in the source and are kept apart here.

Key:
[1] = target: LRRK2 G2019S (Homo sapiens (Human), UniProt Q5S007, G2019S); test: LRRK2 G2019S LanthaScreen TR-FRET kinase activity assay; assay type: biochemical; details: 250 pM kinase, 1.3 mM ATP, n≥2 tests
[2] = Rat brain disposition after oral gavage; assay type: in vivo, male Sprague-Dawley rats; details: male, Sprague-Dawley, 1 h, mean ± stdev; for Kp at 1 h / Kp uu at 1 h: n=3
Method in brief: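 Male Sprague-Dawley rats (n=3) dosed orally at 10 or 5 mg/kg in 0.5% HPMC suspension; plasma and brain taken at 0.5 or 1 h. LC-MS/MS quantitation; Kp is total brain:plasma ratio, and Kp,uu was derived using rat fu in plasma and brain.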

[3] = Fraction unbound in rat plasma and brain homogenate by equilibrium dialysis; assay type: in vitro ADME, male Sprague-Dawley rat; details: 1 μM, equilibrium dialysis 5 h at 37° C.; for fubrain (% free): rat brain homogenate; for fuplasma (% free): rat plasma
Method in brief: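 Male Sprague-Dawley rat plasma or brain homogenate (diluted 1:4 in buffer) dialysed against 100 mM sodium phosphate pH 7.4 across a 12-14 kDa membrane, 1 μM compound (≤0.5% DMSO), 5 h at 37° C with shaking. LC/MS-MS of both chambers; fu from buffer/donor ratio, corrected for dilution factor D=4 (brain) or 1 (plasma).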

[4] = Hepatocyte intrinsic clearance assay; assay type: in vitro ADME, Human; details: pooled donor, cryopreserved hepatocytes, pH 7.4; human hepatocytes 1×10^6/mL; 0.05 μM; 2 h at 37° C.
Method in brief: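 Compound (0.05 μM final, 0.05% organic) was incubated with pooled-donor cryopreserved hepatocytes (1×10^6/mL) in supplemented Leibovitz L-15, pH 7.4, at 37° C with shaking for 2 h. Samples were taken from 1 to 120 min, quenched in acetonitrile and analyzed by LC-MS/MS.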

[5] = Hepatic microsomal intrinsic clearance assay; assay type: in vitro ADME; details: for CLint scaled at 1 μM: pooled liver microsomes, pH 7.4, liver microsomes 0.5 mg/mL, NADPH, 1 hour at 37° C., LLOQ 0.36 L/h/kg
Method in brief: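 Compounds at 1 μM final were incubated with pooled liver microsomes (0.5 mg/mL) in phosphate buffer pH 7.4 at 37 °C for up to 60 min. Samples taken at 0, 5, 10, 20, 30 and 60 min were quenched with acetonitrile and analysed by LC-MS/MS.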

[6] = brain, oral 5 mg/kg, n=3, read-out: Total brain concentration
[7] = plasma, oral 5 mg/kg, n=3, read-out: Total plasma concentration

Chain of LRRK2 G2019S (Q5S007 970-2527 G2019S): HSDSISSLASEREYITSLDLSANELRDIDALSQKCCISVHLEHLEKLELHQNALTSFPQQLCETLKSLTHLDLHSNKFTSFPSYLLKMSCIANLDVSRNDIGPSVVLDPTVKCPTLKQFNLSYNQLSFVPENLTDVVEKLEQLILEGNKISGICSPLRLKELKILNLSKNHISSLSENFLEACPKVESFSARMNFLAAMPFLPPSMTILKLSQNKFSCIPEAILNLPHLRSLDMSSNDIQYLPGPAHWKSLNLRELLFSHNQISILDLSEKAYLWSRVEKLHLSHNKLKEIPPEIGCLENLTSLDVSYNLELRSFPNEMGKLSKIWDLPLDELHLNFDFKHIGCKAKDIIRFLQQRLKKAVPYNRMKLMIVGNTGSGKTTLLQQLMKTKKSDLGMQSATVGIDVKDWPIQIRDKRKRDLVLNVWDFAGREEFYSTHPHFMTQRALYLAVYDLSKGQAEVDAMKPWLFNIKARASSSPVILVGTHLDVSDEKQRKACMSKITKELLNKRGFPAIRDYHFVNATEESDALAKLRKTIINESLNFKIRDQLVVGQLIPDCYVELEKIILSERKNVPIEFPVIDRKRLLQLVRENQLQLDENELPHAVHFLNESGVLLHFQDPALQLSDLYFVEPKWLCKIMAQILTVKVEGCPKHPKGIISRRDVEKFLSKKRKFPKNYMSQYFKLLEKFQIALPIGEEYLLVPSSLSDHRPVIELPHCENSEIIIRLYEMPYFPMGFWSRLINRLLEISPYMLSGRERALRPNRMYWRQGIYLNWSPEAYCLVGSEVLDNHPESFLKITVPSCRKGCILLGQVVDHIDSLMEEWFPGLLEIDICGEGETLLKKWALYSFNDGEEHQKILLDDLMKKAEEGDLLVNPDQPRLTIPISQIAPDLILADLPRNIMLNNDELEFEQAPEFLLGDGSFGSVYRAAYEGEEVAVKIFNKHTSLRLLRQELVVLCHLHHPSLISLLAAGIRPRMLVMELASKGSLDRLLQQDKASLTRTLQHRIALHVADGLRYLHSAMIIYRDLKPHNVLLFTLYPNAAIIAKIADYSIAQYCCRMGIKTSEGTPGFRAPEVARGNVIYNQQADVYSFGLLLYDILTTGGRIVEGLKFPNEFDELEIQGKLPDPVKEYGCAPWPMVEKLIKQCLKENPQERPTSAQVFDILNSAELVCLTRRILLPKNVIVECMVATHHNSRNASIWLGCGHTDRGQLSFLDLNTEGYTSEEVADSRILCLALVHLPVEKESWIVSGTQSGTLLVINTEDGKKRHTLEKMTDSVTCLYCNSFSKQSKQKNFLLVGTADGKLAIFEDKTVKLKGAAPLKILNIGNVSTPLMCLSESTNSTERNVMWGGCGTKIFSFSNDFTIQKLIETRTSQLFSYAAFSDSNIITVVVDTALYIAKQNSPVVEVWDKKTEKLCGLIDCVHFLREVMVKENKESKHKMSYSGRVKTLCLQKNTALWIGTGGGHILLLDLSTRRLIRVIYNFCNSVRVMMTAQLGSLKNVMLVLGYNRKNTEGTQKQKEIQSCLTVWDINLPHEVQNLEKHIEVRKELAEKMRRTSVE

Kp at 1 h ([2]; brain, oral 10 mg/kg)	Kp uu at 1 h ([2]; brain, oral 10 mg/kg)	concentration at 1 h ([2]; brain, oral 10 mg/kg, n=3, read-out: Total brain concentration) [ng/g]	concentration at 1 h ([2]; plasma, oral 10 mg/kg, n=3, read-out: Total plasma concentration) [ng/mL]	SMILES	IC50 [1] [nM]	fubrain (% free) [3] [% free]	fuplasma (% free) [3] [% free]	CLint scaled at 0.05 μM [4] [mL/min/kg]	CLint scaled at 1 μM [5] [mL/min/kg]	Kp at 1 h ([2]; brain, oral 5 mg/kg)	Kp uu at 1 h ([2]; brain, oral 5 mg/kg)	concentration at 1 h [2, 6] [ng/g]	concentration at 1 h [2, 7] [ng/mL]	Rate of metabolism classification (liver microsomal CLint) ([5]; based on liver microsomal CLint values of Table 6)
2.6 ± 0.2	0.83 ± 0.07	620 ± 280	245 ± 121	COc1ncccc1-n1nc2c(c1C)Nc1ncc3c(Cl)nn(c3n1)CCCO2 [Example 1, 8-Chloro-2-(2-methoxypyridin-3-yl)-3-methyl-2,4,12,13-tetrahydro-11H-5,7-(azenometheno)dipyrazolo[3,4-b:5′,1′-g][1]oxa[4,6,8]triazacycloundecine]	0.45	4.7	14.7	10.7	9.67	–	–	–	–	–
–	–	–	–	COc1nccc(C)c1-n1nc2c(c1C)Nc1ncc3c(Cl)nn(c3n1)CCCO2 [Example 7, 8-Chloro-2-(2-methoxy-4-methylpyridin-3-yl)-3-methyl-2,4,12,13-tetrahydro-11H-5,7-(azenometheno)dipyrazolo[3,4-b:5′,1′-g][1]oxa[4,6,8]triazacycloundecine]	2.3	7.5	21.0	7.83	16.2	1.9 ± 0.3	0.68 ± 0.12	10 ± 2	6 ± 2	–
–	–	–	–	COc1ncc(C)cc1-n1nc2c(c1C)Nc1ncc3c(Cl)nn(c3n1)CCCO2 [Example 12, 8-Chloro-2-(2-methoxy-5-methylpyridin-3-yl)-3-methyl-2,4,12,13-tetrahydro-11H-5,7-(azenometheno)dipyrazolo[3,4-b:5′,1′-g][1]oxa[4,6,8]triazacycloundecine]	0.13	3.0	6.7	8	16.8	1.9 ± 0.3	0.85 ± 0.15	146 ± 56	76 ± 23	–
–	–	–	–	COc1nc(C)ccc1-n1nc2c(c1C)Nc1ncc3c(Cl)nn(c3n1)CCCO2 [Example 13, 8-Chloro-2-(2-methoxy-6-methylpyridin-3-yl)-3-methyl-2,4,12,13-tetrahydro-11H-5,7-(azenometheno)dipyrazolo[3,4-b:5′,1′-g][1]oxa[4,6,8]triazacycloundecine]	0.22	1.9	7.4	31.3	30.3	2.5 ± 0.1	0.74 ± 0.01	496 ± 128	199 ± 52	moderate to high rate of metabolism
–	–	–	–	Cc1c2c(nn1-c1cccnc1C(C)(F)F)OCCCn1nc(Cl)c3cnc(nc31)N2 [Example 14, 8-Chloro-2-(2-(1,1-difluoroethyl)pyridin-3-yl)-3-methyl-2,4,12,13-tetrahydro-11H-5,7-(azenometheno)dipyrazolo[3,4-b:5′,1′-g][1]oxa[4,6,8]triazacycloundecine]	4.2	5.8	14.6	7.83	17.2	1.2 ± 0.1	0.49 ± 0.04	347 ± 53	283 ± 57	–
–	–	–	–	Cc1nc(C)c(-n2nc3c(c2C)Nc2ncc4c(Cl)nn(c4n2)CCCO3)cc1F [Example 15, 8-Chloro-2-(5-fluoro-2,6-dimethylpyridin-3-yl)-3-methyl-2,4,12,13-tetrahydro-11H-5,7-(azenometheno)dipyrazolo[3,4-b:5′,1′-g][1]oxa[4,6,8]triazacycloundecine]	1.4	5.0	11.0	12	12	1.8 ± 0.2	0.81 ± 0.07	254 ± 32	143 ± 8	–
–	–	–	–	COc1nc(C)ncc1-n1nc2c(c1C)Nc1ncc3c(Cl)nn(c3n1)CCCO2 [Example 22, 8-Chloro-2-(4-methoxy-2-methylpyrimidin-5-yl)-3-methyl-2,4,12,13-tetrahydro-11H-5,7-(azenometheno)dipyrazolo[3,4-b:5′,1′-g][1]oxa[4,6,8]triazacycloundecine]	0.59	6.8	16.8	< 4	< 6	2.5 ± 0.4	1.02 ± 0.17	216 ± 42	86 ± 8	–
